Like-named read-outs stand apart in the source and are kept apart here.
Experiments:
[1] = known Hsp90 inhibitors; cited from earlier work
P-glycoprotein = P-glycoprotein (Homo sapiens, UniProt P08183); details: known Hsp90 inhibitor, cited from earlier work
[2] = tested on: p35 in primary neurons, COS-7/p35 and COS-7/p35/Tau cells; test: p35 degradation and Tau phosphorylation in primary neurons and transfected COS-7 cells; type: cell-based, rat; details: compared with PU24FC1
Experimental: To further examine the roles played by Hsp90 in tauopathy, we made use of both PU24FC1 and 17-(allyllamino)-17-demethoxygeldanamycin (17AAG) and investigated their effects on both cdk5/p35 and TauP301L in primary neuronal and COS-7 cell cultures. Primary neuronal cultures were derived from the cerebral cortices of embryonic day 17 rat embryos and maintained as described previously (105). To determine the effects of PU24FC1 on protein steady-states and on Tau phosphorylation, PU24FC1 was added at day 6 of culture, and cells were incubated at 37° C. as indicated. […] After incubation, cells were harvested and lysed in 2% SDS, and the resulting samples were analyzed by Western blotting.
Phosphorylation of Tau by cdk5 is initiated through activation by complex formation with one of the neuron-specific proteins p35 or p39. […] In concordance, we assessed the influence of Hsp90 inhibition on p35 cellular expression. A dose- and time-dependent degradation of p35 by PU24FC1 was detected in primary neurons by immunoblot and by immunofluorescence techniques, as well as in COS-7/p35 and COS-7/p35/Tau cells. […]
We detected a dose- and time-dependent degradation of p35 by PU24FC1 in primary neurons, as well as in COS-7/p35 and COS-7/p35/Tau cells. […] Reduction of p35 levels by Hsp90 inhibition affected the activity of the cdk5/p35 complex, as measured using a substrate of cdk5, the histone-H1. […]

P-glycoprotein, sequence (P08183 whole entry): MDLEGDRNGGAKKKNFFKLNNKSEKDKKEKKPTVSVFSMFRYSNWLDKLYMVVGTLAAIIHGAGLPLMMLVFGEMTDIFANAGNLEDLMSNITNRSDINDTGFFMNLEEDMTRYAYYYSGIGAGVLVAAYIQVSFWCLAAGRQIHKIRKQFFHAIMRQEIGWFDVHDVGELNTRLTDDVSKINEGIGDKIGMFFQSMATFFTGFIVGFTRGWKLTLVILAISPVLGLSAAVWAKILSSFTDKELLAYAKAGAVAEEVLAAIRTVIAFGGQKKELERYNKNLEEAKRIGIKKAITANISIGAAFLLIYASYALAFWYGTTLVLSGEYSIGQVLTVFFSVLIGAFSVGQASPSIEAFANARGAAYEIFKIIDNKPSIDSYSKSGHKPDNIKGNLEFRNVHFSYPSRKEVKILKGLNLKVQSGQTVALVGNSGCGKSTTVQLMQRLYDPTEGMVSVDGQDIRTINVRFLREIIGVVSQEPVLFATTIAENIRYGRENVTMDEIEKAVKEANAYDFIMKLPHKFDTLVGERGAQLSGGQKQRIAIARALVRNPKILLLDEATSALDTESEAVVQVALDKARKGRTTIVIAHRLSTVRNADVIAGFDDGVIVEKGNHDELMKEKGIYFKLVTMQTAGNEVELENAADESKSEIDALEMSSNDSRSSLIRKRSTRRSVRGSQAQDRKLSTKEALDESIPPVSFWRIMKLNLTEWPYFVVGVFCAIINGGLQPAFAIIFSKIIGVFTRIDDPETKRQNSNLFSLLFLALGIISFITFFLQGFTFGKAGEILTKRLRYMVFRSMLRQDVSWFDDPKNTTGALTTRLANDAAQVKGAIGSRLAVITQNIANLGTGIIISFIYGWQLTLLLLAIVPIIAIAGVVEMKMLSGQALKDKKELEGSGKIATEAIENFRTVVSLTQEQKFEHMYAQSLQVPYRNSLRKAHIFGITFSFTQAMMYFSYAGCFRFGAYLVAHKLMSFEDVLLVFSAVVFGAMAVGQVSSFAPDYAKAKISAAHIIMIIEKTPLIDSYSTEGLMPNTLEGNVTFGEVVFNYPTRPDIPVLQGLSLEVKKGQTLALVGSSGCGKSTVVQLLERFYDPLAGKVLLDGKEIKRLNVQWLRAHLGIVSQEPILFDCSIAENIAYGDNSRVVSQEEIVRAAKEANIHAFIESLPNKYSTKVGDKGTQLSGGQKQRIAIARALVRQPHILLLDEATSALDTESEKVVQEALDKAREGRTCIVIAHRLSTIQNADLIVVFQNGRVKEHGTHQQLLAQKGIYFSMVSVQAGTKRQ

| Compound | solubility [1] | P-gp substrate (P-glycoprotein) | P-gp substrate (P-glycoprotein; listed as 17-AAG) | effects on p35 and mTau [2] |
| --- | --- | --- | --- | --- |
| C[C@@H]1C[C@H]2O[C@@H]2/C=C\C=C\C(=O)Cc2c(Cl)c(O)cc(O)c2C(=O)O1 [radicicol] | poorly soluble |  |  |  |
| C=CCNC1=C2C[C@@H](C)C[C@H](OC)[C@H](O)[C@@H](C)/C=C(\C)[C@H](OC(N)=O)[C@@H](OC)/C=C\C=C(/C)C(=O)NC(=CC1=O)C2=O [Compound 17AAG, 17-(allyllamino)-17-demethoxygeldanamycin] | poorly soluble | is a P-gp substrate | is a P-glycoprotein substrate | Analogous effects |
| COC1=C2C[C@@H](C)C[C@H](OC)[C@H](O)[C@@H](C)/C=C(\C)[C@H](OC(N)=O)[C@@H](OC)/C=C\C=C(/C)C(=O)NC(=CC1=O)C2=O [geldanamycin] | poorly soluble |  |  |  |

Source: patent US20090298857A1, “Treatment of Neurodegenerative Diseases Through Inhibition of HSP90” (SLOAN-KETTERING INSTITUTE FOR CANCER RESEARCH, priority 2006, published 2009)
